According to patent US12528807B2, “Solid forms of {6-[(2-amino-3-chloropyridin-4-yl)sulfanyl]-3-[(3S,4S)-4-amino-3-methyl-2-oxa-8-azaspiro[4.5]decan-8-yl]-5-methylpyrazin-2-yl} methanol, a SHP2 inhibitor” (Revolution Medicines, Inc., priority 2019, dated 2026):

Test: Relative thermodynamic stability of the anhydrous polymorphs and transition temperatures between them (thermal techniques)
Assay type: physicochemical
Details: for Temperature at which the form is thermodynamically (physically) stable: approximate
Method: Forms A, B, C, and D are anhydrous polymorphs of Compound 1. Thermal techniques provide data that the relative stability of the forms change with temperature. Both Forms A and C are enantiotropically related to each other and to Form D; Form A is thermodynamically stable above approximately 80° C., Form C is the stable form between approximately 80 and 43° C., and Form D is physically stable below approximately 43° C. […]
Differential scanning calorimetry performed using TA instruments Q2000: Temperature calibration was performed using NIST-traceable indium metal. The sample was placed into an aluminum Tzero crimped pan and the weight was accurately recorded. A weighed aluminum pan configured as the sample pan was placed on the reference side of the cell. The samples were analyzed from −30 to 250° C. at a ramp rate of 10° C./min.
Differential scanning calorimetry performed using Mettler-Toledo DSC3+: Temperature calibration was performed using adamantane, phenyl salicylate, indium, tin, and zinc. The sample was placed into a hermetically sealed or an open aluminum DSC pan, and the weight was accurately recorded. A weighed aluminum pan configured as the sample pan was placed on the reference side of the cell. The samples were analyzed from −30 to 250° C. at a ramp rate of 10° C./min. Although thermograms are plotted by reference temperature (x-axis), results are reported according to sample temperatures.

Structure (SMILES) | Conversion between Forms A, C, and D upon reaching the corresponding relevant temperatures | Relative Thermodynamic Stability of Polymorphs (above ~80° C.) | Temperature at which the form is thermodynamically (physically) stable | Temperature at which the form is thermodynamically (physically) stable (listed as Form A) | Relative Thermodynamic Stability of Polymorphs (between ~43 and ~65° C.) | Relative Thermodynamic Stability of Polymorphs (between ~65 and ~80° C.) | Relationship to Form B (table of estimated transition point temperatures) (relative to Form B) | Relative Thermodynamic Stability of Polymorphs (subambient up to ~43° C.) | Estimated Transition Point Temperature between Enantiotropic Polymorphs, to Form C (transition to Form C) | Estimated Transition Point Temperature between Enantiotropic Polymorphs, to Form D | Thermodynamic stability in words | Temperature at which the form is thermodynamically (physically) stable (listed as Form D)
Cc1nc(N2CCC3(CC2)CO[C@@H](C)[C@H]3N)c(CO)nc1Sc1ccnc(N)c1Cl [Compound 1 Form A, {6-[(2-amino-3-chloropyridin-4-yl)sulfanyl]-3-[(3S,4S)-4-amino-3-methyl-2-oxa-8-azaspiro[4.5]decan-8-yl]-5-methylpyrazin-2-yl}methanol] | immediate (and reversible) | A > (C and D and B) | > 80 °C | > 80 °C | C > D > A > B | C > A > (D and B) | monotropic | D > C > A > B | ~80 °C | ~65 °C | – | –
Cc1nc(N2CCC3(CC2)CO[C@@H](C)[C@H]3N)c(CO)nc1Sc1ccnc(N)c1Cl [Compound 1 Form B, {6-[(2-amino-3-chloropyridin-4-yl)sulfanyl]-3-[(3S,4S)-4-amino-3-methyl-2-oxa-8-azaspiro[4.5]decan-8-yl]-5-methylpyrazin-2-yl}methanol] | – | – | – | – | – | – | – | – | – | – | metastable form at all temperatures | –
Cc1nc(N2CCC3(CC2)CO[C@@H](C)[C@H]3N)c(CO)nc1Sc1ccnc(N)c1Cl [Compound 1 Form C, {6-[(2-amino-3-chloropyridin-4-yl)sulfanyl]-3-[(3S,4S)-4-amino-3-methyl-2-oxa-8-azaspiro[4.5]decan-8-yl]-5-methylpyrazin-2-yl}methanol] | immediate (and reversible) | A > (C and D and B) | – | – | C > D > A > B | C > A > (D and B) | – | D > C > A > B | – | ~43 °C | – | –
Cc1nc(N2CCC3(CC2)CO[C@@H](C)[C@H]3N)c(CO)nc1Sc1ccnc(N)c1Cl [Compound 1 Form D, {6-[(2-amino-3-chloropyridin-4-yl)sulfanyl]-3-[(3S,4S)-4-amino-3-methyl-2-oxa-8-azaspiro[4.5]decan-8-yl]-5-methylpyrazin-2-yl}methanol] | immediate (and reversible) | A > (C and D and B) | < 43 °C | – | C > D > A > B | C > A > (D and B) | – | D > C > A > B | – | – | – | < 43 °C
